# Experimental data reported in patent EP4008716A1, “NOVEL INHIBITORS OF INSULIN-LIKE GROWTH FACTOR 2 MRNA BINDING PROTEINS” (Martin-Luther-Universität Halle-Wittenberg, priority 2020, dated 2022).
# Tested on: ES-2 cells
# Assay: Cytotoxicity / cell vitality by cell confluency (IncuCyte live-cell imaging) relative to DMSO controls
# Format: cell-based
# Details: Homo sapiens, ovarian cancer-derived ES-2 cells, 72 h post compound application, eleven concentrations, two-fold dilution from 20µM, mean of three independent studies
# Procedure: All novel inhibitors were explored for their cytotoxic activity in ovarian cancer-derived ES-2 cells. In these cell models, BTYNB was prior shown to impair cell vitality and metastatic potential in vitro and cancer mouse models (15). For the respective studies ES-2 cells were plated and exposed to increasing concentration of the compounds and cell vitality was monitored by determining cell confluency relative to DMSO controls using an IncuCyte cell imaging system, essentially as described recently (15). For determining the impact of the developed compounds on ES-2 cell vitality, cells were cultured in Dulbecco's modified eagle medium (DMEM) containing phenol red, 4.5 g/L D-Glucose, 0.11 g/L sodium pyruvate, 10% (v/v) fetal bovine serum (FBS) and 2 mM GlutaMAX (Sigma-Aldrich, Darmstadt, Germany). Cells were maintained in under humidified conditions at 37 °C, 5% CO2. For cytotoxicity studies, cells were seeded in 96-well flat-bottom plates at 2 x 10^3 cells per well in 100 µL supplemented DMEM and incubated for 24 h prior to addition of BTYNB derivatives. Compounds were analyzed at eleven concentrations using a two-fold dilution with an initial compound concentration of 20µM in DMSO (solvent). Cells treated with 0.002% (v/v) DMSO served as controls. Cytotoxicity of compound concentrations was determined 72 h post compound application by monitoring cell confluency using an IncuCyte Systems for Live-Cell Imaging. Cell confluency was determined with the IncuCyte 2019B Rev2 software. Confluency of controls was set to 1 (100%) and altered confluency at distinct compound concentrations was calculated as relative confluency. The mean relative confluency at compound concentrations was analyzed in three independent studies with three technical replicates each. The mean values of three analyses were plotted against the logarithmic concentration of compounds and fitted by the non-linear module [Sigmoidal, 4PL, X is log(concentration)] using GraphPad Prism V9(86) for macOS. In Table 1 compounds with EC50 values, indicating the potency of the 58 developed compounds to impair cell vitality, are listed. […] Table 2: EC-values of the synthesized compounds of formula (I)
row,Molecule,EC50
1,"NC(=O)c1ccccc1OCc1ccc(Cl)s1 [compound 1, 2-[(5-chlorothiophen-2-yl)methoxy]benzamide]",5610 nM
2,"Cc1ccc(C(=O)Nc2ccccc2C(N)=O)s1 [compound 2, N-[2-(aminocarbonyl)phenyl]-5-methyl-2-thiophenecarboxamide]",2060 nM
3,"COc1cc(-c2nc3ccccc3c(=O)[nH]2)ccc1OCc1ccccc1[N+](=O)[O-] [compound 3, 2-{3-Methoxy-4-[(2-nitrobenzyl)oxy]phenyl}-4(3H)-quinazolinone]",476 nM
4,"O=c1[nH]c(-c2ccc(OCc3ccccc3F)cc2)nc2ccccc12 [compound 4, 2-{4-[(2-Fluorobenzyl)oxy]phenyl}-4(3H)-quinazolinone]",250 nM
5,"COc1ccc(OCc2cc(-c3nc4sc(Cc5ccccc5)cc4c(=O)[nH]3)ccc2OC)cc1 [compound 5, 6-Benzyl-2-{4-methoxy-3-[(4-methoxyphenoxy)methyl]phenyl}thieno[2,3-d]pyrimidin-4(3H)-one]",1120 nM
6,"CC(Sc1nnc(NC(=O)c2ccccc2)s1)c1nc2ccccc2c(=O)[nH]1 (stereo not shown) [compound 6, N-(5-{[1-(4-oxo-3,4-dihydro-2-quinazolinyl)ethyl]thio}-1,3,4-thiadiazol-2-yl)benzamide]",4050 nM
7,"Cc1cc2c(=O)[nH]c(Cc3ccccc3)nc2s1 [compound 7, 2-Benzyl-6-methylthieno[2,3-d]pyrimidin-4(3H)-one]",4840 nM
8,"CNC(=O)c1ccccc1NC(=O)c1cc(C)c(C)s1 [compound 8, 4,5-Dimethyl-N-[2-(methylcarbamoyl)phenyl]thiophene-2-carboxamide]",2830 nM
9,"NC(=O)c1cc(Cl)ccc1OCC(=O)c1ccc(Cl)s1 [compound 9, 5-chloro-2-[2-(5-chlorothiophen-2-yl)-2-oxoethoxy]benzamide]",1330 nM
10,"NC(=O)c1ccsc1NC(=O)c1cccs1 [compound 10, N-[3-(aminocarbonyl)-2-thienyl]-2-thiophenecarboxamide]",3230 nM
11,"NC(=O)c1ccccc1NC(=O)C1CCN(C(=O)c2cccs2)CC1 [compound 11, N-[2-(aminocarbonyl)phenyl]-1-(2-thienylcarbonyl)-4-piperidinecarboxamide]",5180 nM
12,"NC(=O)c1ccccc1NC(=O)c1ccc(Cl)c(Cl)c1 [compound 12, N-[2-(aminocarbonyl)phenyl]-3,4-dichlorobenzamide]",1880 nM
13,"NC(=O)c1ccccc1NC(=O)c1ccc(Cl)s1 [compound 13, N-(2-carbamoylphenyl)-5-chlorothiophene-2-carboxamide]",2300 nM
14,"NC(=O)c1ccccc1NC(=O)c1ccccc1 [compound 14, N-(2-carbamoylphenyl)benzamide]",10500 nM
15,"CCc1cc(C(=O)Nc2sccc2C(N)=O)cs1 [compound 15, 2-{[(5-Ethyl-3-thienyl)carbonyl]amino}-3-thiophenecarboxamide]",2950 nM
16,"COc1ccc(C(=O)Nc2ccccc2C(N)=O)cc1Cl [compound 16, N-[2-(aminocarbonyl)phenyl]-3-chloro-4-methoxybenzamide]",5840 nM
17,"NC(=O)c1ccccc1NC(=O)c1cccc(COc2cccc(Cl)c2)c1 [compound 17, 2-({3-[(3-Chlorophenoxy)methyl]benzoyl}amino)benzamide]",675 nM
18,"NC(=O)c1ccccc1NC(=O)c1cc(Cl)cc(Cl)c1 [compound 18, N-[2-(aminocarbonyl)phenyl]-3,5-dichlorobenzamide]",5140 nM
19,"NC(=O)c1ccccc1OCC(=O)c1ccc(Br)cc1 [compound 19, 2-[2-(4-Bromophenyl)-2-oxoethoxy]benzamide]",2950 nM
20,"NC(=O)c1ccccc1NC(=O)CN1CCN(Cc2ccc(Cl)c(Cl)c2)CC1 [compound 20, 2-({[4-(3,4-Dichlorobenzyl)-1-piperazinyl]acetyl}amino)benzamide]",1220 nM
21,"NC(=O)c1ccccc1NC(=O)CN1CCN(Cc2ccc(Cl)cc2Cl)CC1 [compound 21, 2-({[4-(2,4-Dichlorobenzyl)-1-piperazinyl]acetyl}amino)benzamide]",993 nM

row,Molecule,EC50
1,"NC(=O)c1ccccc1NC(=O)CN1CCN(Cc2c(Cl)cccc2Cl)CC1 [compound 22, 2-({[4-(2,6-Dichlorobenzyl)-1-piperazinyl]acetyl}amino)benzamide]",6460 nM
2,"NC(=O)c1ccccc1NC(=O)CN1CCN(Cc2ccc(Cl)cc2)CC1 [compound 23, 2-({[4-(4-Chlorobenzyl)-1-piperazinyl]acetyl}amino)benzamide]",2990 nM
3,"NC(=O)c1ccccc1NC(=O)CN1CCN(Cc2ccccc2Cl)CC1 [compound 24, 2-({[4-(2-Chlorobenzyl)-1-piperazinyl]acetyl}amino)benzamide]",9580 nM
4,"NC(=O)c1ccccc1NC(=O)CN1CCN(Cc2ccc(F)cc2Cl)CC1 [compound 25, 2-({[4-(2-Chloro-4-fluorobenzyl)-1-piperazinyl]acetyl}amino)benzamide]",3170 nM
5,"COc1ccc(C(=O)Nc2ccccc2C(N)=O)cc1COc1ccccc1Cl [compound 26, 2-{3-[(2-Chlorophenoxy)methyl]-4-methoxybenzamido}benzamide]",1100 nM
6,"COc1ccc(C(=O)Nc2sccc2C(N)=O)cc1COc1ccccc1Cl [compound 27, 2-{3-[(2-Chlorophenoxy)methyl]-4-methoxybenzamido}thiophene-3-carboxamide]",1660 nM
7,"COc1cc(C=CC(=O)Nc2ccccc2C(N)=O)ccc1OCc1ccccc1 [compound 28, 2-({3-[4-(Benzyloxy)-3-methoxyphenyl]acryloyl}amino)benzamide]",1880 nM
8,"NC(=O)c1c(NC(=O)c2ccc(Cl)s2)sc2c1CCC2 [compound 29, 2-{[(5-Chloro-2-thienyl)carbonyl]amino}-5,6-dihydro-4H-cyclopenta[b]thiophene-3-carboxamide]",6270 nM
9,"NC(=O)c1c(NC(=O)c2ccc(Cl)s2)sc2c1CCCC2 [compound 30, 2-{[(5-Chloro-2-thienyl)carbonyl]amino}-4,5,6,7-tetrahydro-1-benzothiophene-3-carboxamide]",1470 nM
10,"NC(=O)c1cc(Cc2ccccc2)sc1NC(=O)c1cccs1 [compound 31, N-[3-(aminocarbonyl)-5-benzyl-2-thienyl]-2-thiophenecarboxamide]",671 nM
11,"CCc1cc(C(=O)Nc2sc(Cc3ccccc3)cc2C(N)=O)cs1 [compound 32, 5-Benzyl-2-{[(5-ethyl-3-thienyl)carbonyl]amino}-3-thiophenecarboxamide]",1900 nM
12,"CCc1c(C(=O)Nc2sc(Cc3ccccc3)cc2C(N)=O)csc1C [compound 33, 5-Benzyl-2-{[(4-ethyl-5-methyl-3-thienyl)carbonyl]amino}-3-thiophenecarboxamide]",5060 nM
13,"NC(=O)c1cc(Cc2ccccc2)sc1NC(=O)Cc1cccs1 [compound 34, 5-Benzyl-2-[(2-thienylacetyl)amino]-3-thiophenecarboxamide]",1160 nM
14,"Cc1ccc(C(=O)Nc2sc(Cc3ccccc3)cc2C(N)=O)o1 [compound 35, N-[3-(Aminocarbonyl)-5-benzyl-2-thienyl]-5-methyl-2-furamide]",1340 nM
15,"NC(=O)c1cc(Cc2ccccc2)sc1NC(=O)c1ccc(Cl)s1 [compound 36, N-[3-(Aminocarbonyl)-5-benzyl-2-thienyl]-5-chloro-2-thiophenecarboxamide]",1660 nM
16,"NC(=O)c1cc(Cc2ccccc2)sc1NC(=O)c1ccccc1 [compound 37, 2-(Benzoylamino)-5-benzyl-3-thiophenecarboxamide]",2270 nM
17,"NC(=O)c1cc(Cc2ccccc2)sc1NC(=O)c1ccc2c(c1)OCO2 [compound 38, N-[3-(aminocarbonyl)-5-benzyl-2-thienyl]-1,3-benzodioxole-5-carboxamide]",1300 nM
18,"NC(=O)c1cc(Cc2ccccc2)sc1NC(=O)CCc1ccccc1 [compound 39, 5-Benzyl-2-[(3-phenylpropanoyl)amino]-3-thiophenecarboxamide]",6210 nM
19,"NC(=O)c1cc(Cc2ccccc2)sc1NC(=O)COc1ccccc1 [compound 40, 5-Benzyl-2-[(phenoxyacetyl)amino]-3-thiophenecarboxamide]",2420 nM
20,"COc1ccc(C(=O)Nc2sc(Cc3ccccc3)cc2C(N)=O)cc1 [compound 41, 5-Benzyl-2-[(4-methoxybenzoyl)amino]-3-thiophenecarboxamide]",1940 nM
21,"CC(C)c1cc(C(N)=O)c(NC(=O)Cc2ccc(Cl)c(Cl)c2)s1 [compound 42, 2-{[(3,4-Dichlorophenyl)acetyl]amino}-5-isopropyl-3-thiophenecarboxamide]",2450 nM

# Same assay, conditions: ovarian cancer-derived ES-2 cells, 72 h post compound application, eleven concentrations, two-fold dilution from 20µM, mean of three independent studies
row,Molecule,EC50
1,2-({4-[(2-Bromophenoxy)methyl]benzoyl}amino)-5-isopropyl-3-thiophenecarboxamide [compound 57],3740 nM
